Experimental data: ChEMBL document CHEMBL3046001, “4-Thiazolidinone and 1-thia-3,4,9-triaza fluorene conjugates: synthesis, characterization and antimicrobial screening” (2013)
≈ marks a conversion by molar mass, not a printed value. Calls of active or inactive are those of the source. The calls are words filed in the database; no cut-off is given here.

How the values were obtained:
Pseudomonas fluorescens [1] = assay: Antibacterial activity against Pseudomonas fluorescens MTCC 2421 assessed as growth inhibition at 1250 ug/mL after 48 hr by agar diffusion method; format: functional; details: MTCC 2421, 48 h, read-out: DIZ
Bacillus pumilus [2] = assay: Antibacterial activity against Bacillus pumilus MTCC 1456 assessed as growth inhibition at 750 ug/mL after 48 hr by agar diffusion method; format: functional; details: MTCC 1456, 48 h, read-out: DIZ
Escherichia coli [3] = assay: Antibacterial activity against Escherichia coli MTCC 1573 assessed as growth inhibition at 750 ug/mL after 48 hr by agar diffusion method; format: functional; details: MTCC 1573, 48 h, read-out: DIZ
Pseudomonas aeruginosa [4] = assay: Antibacterial activity against Pseudomonas aeruginosa MTCC 424 assessed as growth inhibition at 250 ug/mL after 48 hr by agar diffusion method; format: functional; details: MTCC 424, 48 h, read-out: DIZ
Escherichia coli [5] = assay: Antibacterial activity against Escherichia coli MTCC 1573 assessed as growth inhibition at 500 ug/mL after 48 hr by agar diffusion method; format: functional; details: MTCC 1573, 48 h, read-out: DIZ
Escherichia coli [6] = assay: Antibacterial activity against Escherichia coli MTCC 1573 assessed as growth inhibition at 1000 ug/mL after 48 hr by agar diffusion method; format: functional; details: MTCC 1573, 48 h, read-out: DIZ
Escherichia coli [7] = assay: Antibacterial activity against Escherichia coli MTCC 1573 assessed as growth inhibition at 250 ug/mL after 48 hr by agar diffusion method; format: functional; details: MTCC 1573, 48 h, read-out: DIZ
Pseudomonas aeruginosa [8] = assay: Antibacterial activity against Pseudomonas aeruginosa MTCC 424 assessed as growth inhibition at 1000 ug/mL after 48 hr by agar diffusion method; format: functional; details: MTCC 424, 48 h, read-out: DIZ
Pseudomonas fluorescens [9] = assay: Antibacterial activity against Pseudomonas fluorescens MTCC 2421 assessed as growth inhibition at 750 ug/mL after 48 hr by agar diffusion method; format: functional; details: MTCC 2421, 48 h, read-out: DIZ
Pseudomonas fluorescens [10] = assay: Antibacterial activity against Pseudomonas fluorescens MTCC 2421 assessed as growth inhibition at 500 ug/mL after 48 hr by agar diffusion method; format: functional; details: MTCC 2421, 48 h, read-out: DIZ
Aspergillus niger [11] = assay: Antifungal activity against Aspergillus niger MTCC 2546 assessed as growth inhibition at 1000 ug/mL after 48 hr by agar diffusion method; format: functional; details: MTCC 2546, 48 h, read-out: DIZ
Bacillus pumilus [12] = assay: Antibacterial activity against Bacillus pumilus MTCC 1456 assessed as growth inhibition after 24 hr by tube dilution method; format: functional; details: MTCC 1456, 24 h
Pseudomonas aeruginosa [13] = assay: Antibacterial activity against Pseudomonas aeruginosa MTCC 424 assessed as growth inhibition at 750 ug/mL after 48 hr by agar diffusion method; format: functional; details: MTCC 424, 48 h, read-out: DIZ
Aspergillus niger [14] = assay: Antifungal activity against Aspergillus niger MTCC 2546 assessed as growth inhibition at 500 ug/mL after 48 hr by agar diffusion method; format: functional; details: MTCC 2546, 48 h, read-out: DIZ
Staphylococcus aureus [15] = assay: Antibacterial activity against Staphylococcus aureus MTCC 1430 assessed as growth inhibition at 1000 ug/mL after 48 hr by agar diffusion method; format: functional; details: MTCC 1430, 48 h, read-out: DIZ
Pseudomonas fluorescens [16] = assay: Antibacterial activity against Pseudomonas fluorescens MTCC 2421 assessed as growth inhibition after 24 hr by tube dilution method; format: functional; details: MTCC 2421, 24 h
Penicillium chrysogenum [17] = assay: Antifungal activity against Penicillium chrysogenum MTCC 161 assessed as growth inhibition at 1000 ug/mL after 48 hr by agar diffusion method; format: functional; details: MTCC 161, 48 h, read-out: DIZ
Penicillium chrysogenum [18] = assay: Antifungal activity against Penicillium chrysogenum MTCC 161 assessed as growth inhibition at 100 ug/mL after 48 hr by agar diffusion method; format: functional, organism-based
Bacillus subtilis [19] = assay: Antibacterial activity against Bacillus subtilis MTCC 441 assessed as growth inhibition at 500 ug/mL after 48 hr by agar diffusion method; format: functional; details: MTCC 441, 48 h, read-out: DIZ
Pseudomonas aeruginosa [20] = assay: Antibacterial activity against Pseudomonas aeruginosa MTCC 424 assessed as growth inhibition at 1250 ug/mL after 48 hr by agar diffusion method; format: functional; details: MTCC 424, 48 h, read-out: DIZ
Micrococcus luteus [21] = assay: Antibacterial activity against Micrococcus luteus MTCC 1538 assessed as growth inhibition at 750 ug/mL after 48 hr by agar diffusion method; format: functional; details: MTCC 1538, 48 h, read-out: DIZ
Bacillus pumilus [22] = assay: Antibacterial activity against Bacillus pumilus MTCC 1456 assessed as growth inhibition at 250 ug/mL after 48 hr by agar diffusion method; format: functional; details: MTCC 1456, 48 h, read-out: DIZ
Bacillus subtilis [23] = assay: Antibacterial activity against Bacillus subtilis MTCC 441 assessed as growth inhibition at 1000 ug/mL after 48 hr by agar diffusion method; format: functional; details: MTCC 441, 48 h, read-out: DIZ
Bacillus subtilis [24] = assay: Antibacterial activity against Bacillus subtilis MTCC 441 assessed as growth inhibition at 100 ug/mL after 48 hr by agar diffusion method; format: functional
Micrococcus luteus [25] = assay: Antibacterial activity against Micrococcus luteus MTCC 1538 assessed as growth inhibition at 500 ug/mL after 48 hr by agar diffusion method; format: functional; details: MTCC 1538, 48 h, read-out: DIZ
Bacillus subtilis [26] = assay: Antibacterial activity against Bacillus subtilis MTCC 441 assessed as growth inhibition at 250 ug/mL after 48 hr by agar diffusion method; format: functional; details: MTCC 441, 48 h, read-out: DIZ
Bacillus pumilus [27] = assay: Antibacterial activity against Bacillus pumilus MTCC 1456 assessed as growth inhibition at 100 ug/mL after 48 hr by agar diffusion method; format: functional; details: MTCC 1456, 48 h, read-out: DIZ
Staphylococcus aureus [28] = assay: Antibacterial activity against Staphylococcus aureus MTCC 1430 assessed as growth inhibition at 250 ug/mL after 48 hr by agar diffusion method; format: functional; details: MTCC 1430, 48 h, read-out: DIZ
Bacillus subtilis [29] = assay: Antibacterial activity against Bacillus subtilis MTCC 441 assessed as growth inhibition after 24 hr by tube dilution method; format: functional; details: MTCC 441, 24 h
Penicillium chrysogenum [30] = assay: Antifungal activity against Penicillium chrysogenum MTCC 161 assessed as growth inhibition at 500 ug/mL after 48 hr by agar diffusion method; format: functional; details: MTCC 161, 48 h, read-out: DIZ
Penicillium chrysogenum [31] = assay: Antifungal activity against Penicillium chrysogenum MTCC 161 assessed as growth inhibition at 1250 ug/mL after 48 hr by agar diffusion method; format: functional; details: MTCC 161, 48 h, read-out: DIZ
Bacillus subtilis [32] = assay: Antibacterial activity against Bacillus subtilis MTCC 441 assessed as growth inhibition at 750 ug/mL after 48 hr by agar diffusion method; format: functional; details: MTCC 441, 48 h, read-out: DIZ
Pseudomonas aeruginosa [33] = assay: Antibacterial activity against Pseudomonas aeruginosa MTCC 424 assessed as growth inhibition after 24 hr by tube dilution method; format: functional; details: MTCC 424, 24 h
Staphylococcus aureus [34] = assay: Antibacterial activity against Staphylococcus aureus MTCC 1430 assessed as growth inhibition at 500 ug/mL after 48 hr by agar diffusion method; format: functional; details: MTCC 1430, 48 h, read-out: DIZ
Pseudomonas fluorescens [35] = assay: Antibacterial activity against Pseudomonas fluorescens MTCC 2421 assessed as growth inhibition at 100 ug/mL after 48 hr by agar diffusion method; format: functional; details: MTCC 2421, 48 h, read-out: DIZ
Micrococcus luteus [36] = assay: Antibacterial activity against Micrococcus luteus MTCC 1538 assessed as growth inhibition at 1000 ug/mL after 48 hr by agar diffusion method; format: functional; details: MTCC 1538, 48 h, read-out: DIZ
Aspergillus niger [37] = assay: Antifungal activity against Aspergillus niger MTCC 2546 assessed as growth inhibition after 24 hr by tube dilution method; format: functional; details: MTCC 2546, 24 h
Aspergillus niger [38] = assay: Antifungal activity against Aspergillus niger MTCC 2546 assessed as growth inhibition at 1250 ug/mL after 48 hr by agar diffusion method; format: functional; details: MTCC 2546, 48 h, read-out: DIZ
Pseudomonas aeruginosa [39] = assay: Antibacterial activity against Pseudomonas aeruginosa MTCC 424 assessed as growth inhibition at 500 ug/mL after 48 hr by agar diffusion method; format: functional; details: MTCC 424, 48 h, read-out: DIZ

Row | Structure (SMILES) | zone of inhibition at 1250 µg/mL (Pseudomonas fluorescens [1]) [mm] | zone of inhibition at 750 µg/mL (Bacillus pumilus [2]) [mm] | zone of inhibition at 750 µg/mL (Escherichia coli [3]) [mm] | zone of inhibition at 250 µg/mL (Pseudomonas aeruginosa [4]) [mm] | zone of inhibition at 500 µg/mL (Escherichia coli [5]) [mm] | zone of inhibition at 1000 µg/mL (Escherichia coli [6]) [mm] | zone of inhibition at 250 µg/mL (Escherichia coli [7]) [mm] | zone of inhibition at 1000 µg/mL (Pseudomonas aeruginosa [8]) [mm] | zone of inhibition at 750 µg/mL (Pseudomonas fluorescens [9]) [mm] | zone of inhibition at 500 µg/mL (Pseudomonas fluorescens [10]) [mm] | zone of inhibition at 1000 µg/mL (Aspergillus niger [11]) [mm] | MIC (Bacillus pumilus [12]) [µg/mL] | zone of inhibition at 750 µg/mL (Pseudomonas aeruginosa [13]) [mm] | zone of inhibition at 500 µg/mL (Aspergillus niger [14]) [mm] | zone of inhibition at 1000 µg/mL (Staphylococcus aureus [15]) [mm] | MIC (Pseudomonas fluorescens [16]) [µg/mL] | zone of inhibition at 1000 µg/mL (Penicillium chrysogenum [17]) [mm] | growth inhibition (GI) (Penicillium chrysogenum [18]) | zone of inhibition at 500 µg/mL (Bacillus subtilis [19]) [mm] | zone of inhibition at 1250 µg/mL (Pseudomonas aeruginosa [20]) [mm] | other results
1 | O=C1CSC(c2ccccn2)N1c1nnc2c3ccccc3nc-2s1 (stereo not drawn) | 20 | 17 | 15 | 9 | 13 | 18 | 9 | 18 | 15 | 13 | 15 | 50 (≈ 137 µM) | 15 | 11 | 12 | 50 (≈ 137 µM) | 15 | inactive | 12 | 22 | zone of inhibition at 750 µg/mL (Micrococcus luteus [21]): 14 mm; zone of inhibition at 250 µg/mL (Bacillus pumilus [22]): 10 mm; zone of inhibition at 1000 µg/mL (Bacillus subtilis [23]): 15 mm; zone of inhibition at 100 µg/mL (Bacillus subtilis [24]; MTCC 441, 48 h, read-out: DIZ): 8 mm; zone of inhibition at 500 µg/mL (Micrococcus luteus [25]): 11 mm; zone of inhibition at 250 µg/mL (Bacillus subtilis [26]): 10 mm; zone of inhibition at 100 µg/mL (Bacillus pumilus [27]): 8 mm; zone of inhibition at 250 µg/mL (Staphylococcus aureus [28]): 8 mm; MIC (Bacillus subtilis [29]): 40 µg/mL (≈ 109 µM); zone of inhibition at 500 µg/mL (Penicillium chrysogenum [30]): 12 mm; zone of inhibition at 1250 µg/mL (Penicillium chrysogenum [31]): 17 mm; zone of inhibition at 750 µg/mL (Bacillus subtilis [32]): 13 mm; MIC (Pseudomonas aeruginosa [33]): 30 µg/mL (≈ 82.1 µM); zone of inhibition at 500 µg/mL (Staphylococcus aureus [34]): 9 mm; zone of inhibition at 100 µg/mL (Pseudomonas fluorescens [35]): 7 mm; zone of inhibition at 1000 µg/mL (Micrococcus luteus [36]): 15 mm; MIC (Aspergillus niger [37]): 150 µg/mL (≈ 410 µM); zone of inhibition at 1250 µg/mL (Aspergillus niger [38]): 17 mm; zone of inhibition at 500 µg/mL (Pseudomonas aeruginosa [39]): 13 mm
2 | O=C1CSC(c2ccccn2)N1c1nnc2c3cc(Cl)ccc3nc-2s1 (stereo not drawn) | 21 | 18 | 15 | 10 | 12 | 20 | 11 | 18 | 15 | 11 | 18 | 50 (≈ 125 µM) | 15 | 12 | 13 | 50 (≈ 125 µM) | 18 | inactive | 9 | 20 | zone of inhibition at 750 µg/mL (Micrococcus luteus [21]): 12 mm; zone of inhibition at 250 µg/mL (Bacillus pumilus [22]): 13 mm; zone of inhibition at 1000 µg/mL (Bacillus subtilis [23]): 19 mm; growth inhibition (GI) (Bacillus subtilis [24]): inactive; zone of inhibition at 500 µg/mL (Micrococcus luteus [25]): 8 mm; zone of inhibition at 250 µg/mL (Bacillus subtilis [26]): 7 mm; zone of inhibition at 100 µg/mL (Bacillus pumilus [27]): 10 mm; zone of inhibition at 250 µg/mL (Staphylococcus aureus [28]): 7 mm; MIC (Bacillus subtilis [29]): 150 µg/mL (≈ 375 µM); zone of inhibition at 500 µg/mL (Penicillium chrysogenum [30]): 12 mm; zone of inhibition at 1250 µg/mL (Penicillium chrysogenum [31]): 20 mm; zone of inhibition at 750 µg/mL (Bacillus subtilis [32]): 14 mm; MIC (Pseudomonas aeruginosa [33]): 30 µg/mL (≈ 75 µM); zone of inhibition at 500 µg/mL (Staphylococcus aureus [34]): 9 mm; zone of inhibition at 100 µg/mL (Pseudomonas fluorescens [35]): 7 mm; zone of inhibition at 1000 µg/mL (Micrococcus luteus [36]): 15 mm; MIC (Aspergillus niger [37]): 200 µg/mL (≈ 500 µM); zone of inhibition at 1250 µg/mL (Aspergillus niger [38]): 20 mm; zone of inhibition at 500 µg/mL (Pseudomonas aeruginosa [39]): 13 mm
